From PMC6112376, “Comprehensive Analyses and Prioritization of Tox21 10K Chemicals Affecting Mitochondrial Function by in-Depth Mechanistic Studies” (Environmental Health Perspectives, 2018)
Structures can show the parent of a compound that is named as a salt. Where two headings read alike, the source gives them in different places.

Experiments:
[1] = test system: Caenorhabditis elegans (Bristol N2); assay: C. elegans larval development and growth assay; conditions: for minimal effective concentration: Caenorhabditis elegans, read-out: LEC EXT: lowest effect concentration for extinction, a measure of nematode size
[2] = test system: Caenorhabditis elegans strain PE255; assay: In vivo C. elegans ATP status assay; conditions: for minimal effective concentration: Caenorhabditis elegans, read-out: LEC LUM: lowest effect concentration for luminescence, a measure of nematode ATP content
rat primary hepatocytes [3] = assay: MMP assay in rat primary hepatocytes; conditions: for IC50: read-out: MMP assays IC50 (µM) Rat Hepatocytes
HepG2 cells [4] = conditions: cited from earlier work
rat primary hepatocytes [5] = test system: rat primary hepatocytes
HepG2 cells [6] = conditions: for IC50: read-out: MMP assays IC50 (µM) HepG2
[7] = read-out: MMP assays IC50 (µM), qHTS-HepG2
[8] = HepG2 cells, single number from one experiment
[9] = read-out: MMP assays IC50 (µM) qHTS-HepG2

Compound	IC50 (HepG2 cells [4]; [7]) [µM]	MMP assays efficacy (%) Rat Hepatocytes (rat primary hepatocytes [5])	IC50 (rat primary hepatocytes [3]) [µM]	MMP assays efficacy (%) qHTS-HepG2 (HepG2 cells [4])	IC50 (HepG2 cells [4]; [9]) [µM]	MMP assays efficacy (%) HepG2 (HepG2 cells [6])	IC50 (HepG2 cells [6]) [µM]	MMP assays IC50 (µM) HepG2 (HepG2 cells [6])	other results
O=C1CCC(N2C(=O)c3ccccc3C2=O)C(=O)N1 (centres unmarked) [Thalidomide]									EXT: mean difference in nematode size relative to plate controls ([1]; 0.5 µM): 0.09319; EXT: mean difference in nematode size relative to plate controls ([1]; 1 µM): -0.00358; EXT: mean difference in nematode size relative to plate controls ([1]; 5 µM): 0.07925; EXT: mean difference in nematode size relative to plate controls ([1]; 10 µM): 0.0474; EXT: mean difference in nematode size relative to plate controls ([1]; 25 µM): 0.0694; EXT: mean difference in nematode size relative to plate controls ([1]; 50 µM): 0.4966; EXT: mean difference in nematode size relative to plate controls ([1]; 75 µM): 0.9805; EXT: mean difference in nematode size relative to plate controls ([1]; 100 µM): 0.9456; minimal effective concentration [1]: 50 µM; LUM: mean difference in luminescence (ATP content) relative to plate controls ([2]; 0.5 µM): 0.03143; LUM: mean difference in luminescence (ATP content) relative to plate controls ([2]; 1 µM): 0.01645; LUM: mean difference in luminescence (ATP content) relative to plate controls ([2]; 5 µM): 0.01511; LUM: mean difference in luminescence (ATP content) relative to plate controls ([2]; 10 µM): 0.04635; LUM: mean difference in luminescence (ATP content) relative to plate controls ([2]; 25 µM): 0.07311; LUM: mean difference in luminescence (ATP content) relative to plate controls ([2]; 50 µM): -0.2127; LUM: mean difference in luminescence (ATP content) relative to plate controls ([2]; 75 µM): 0.4289; LUM: mean difference in luminescence (ATP content) relative to plate controls ([2]; 100 µM): 0.7958; minimal effective concentration [2]: 75 µM
CC(C)[C@@H]1NC(=O)[C@H](C)OC(=O)[C@@H](C(C)C)NC(=O)[C@@H](C(C)C)OC(=O)[C@H](C(C)C)NC(=O)[C@H](C)OC(=O)[C@@H](C(C)C)NC(=O)[C@@H](C(C)C)OC(=O)[C@H](C(C)C)NC(=O)[C@H](C)OC(=O)[C@@H](C(C)C)NC(=O)[C@@H](C(C)C)OC1=O [Valinomycin]									EXT: mean difference in nematode size relative to plate controls ([1]; 0.5 µM): 0.09961; EXT: mean difference in nematode size relative to plate controls ([1]; 1 µM): 0.01293; EXT: mean difference in nematode size relative to plate controls ([1]; 5 µM): -0.07954; EXT: mean difference in nematode size relative to plate controls ([1]; 10 µM): -0.01187; EXT: mean difference in nematode size relative to plate controls ([1]; 25 µM): 0.0497; EXT: mean difference in nematode size relative to plate controls ([1]; 50 µM): 0.3415; EXT: mean difference in nematode size relative to plate controls ([1]; 75 µM): 0.411; EXT: mean difference in nematode size relative to plate controls ([1]; 100 µM): 0.3807; minimal effective concentration [1]: 50 µM; LUM: mean difference in luminescence (ATP content) relative to plate controls ([2]; 0.5 µM): -0.05222; LUM: mean difference in luminescence (ATP content) relative to plate controls ([2]; 1 µM): -0.06335; LUM: mean difference in luminescence (ATP content) relative to plate controls ([2]; 5 µM): 0.1958; LUM: mean difference in luminescence (ATP content) relative to plate controls ([2]; 10 µM): 0.3328; LUM: mean difference in luminescence (ATP content) relative to plate controls ([2]; 25 µM): 1.023; LUM: mean difference in luminescence (ATP content) relative to plate controls ([2]; 50 µM): 0.6115; LUM: mean difference in luminescence (ATP content) relative to plate controls ([2]; 75 µM): 0.5181; LUM: mean difference in luminescence (ATP content) relative to plate controls ([2]; 100 µM): 0.5717; minimal effective concentration [2]: 25 µM
COC(=O)c1c(C)cc(O)c(C)c1O	16 ± 6.62	-81±57%							IC50 (rat primary hepatocytes [3]; rat hepatocytes, mean ± SD of three experiments): 30.6 ± 28.4 µM; MMP assays efficacy (%) HepG2 (HepG2 cells [6]; [8]): -103%; IC50 (HepG2 cells [6]; [8]): 25.1 µM
CC(c1ccc(O)cc1)c1ccc(O)cc1 [Bisphenol E]		-56±19%	36.5 ± 19.2	-127±8%	27.6 ± 1.8	-147%	25.1		
N#Cc1c2ccccc2cc2ccccc12 [Compound 9-Cyanoanthracene]		-32±6%		-74±32%	6.85 ± 18.1	inactive		inactive	IC50 (rat primary hepatocytes [3]; Rattus norvegicus, Hepatocyte): 18 ± 5.46 µM
CC(=O)[C@]1(O)Cc2c(O)c3c(c(O)c2[C@@H](O[C@H]2C[C@H](N)[C@H](O)[C@H](C)O2)C1)C(=O)c1ccccc1C3=O [Idarubicin hydrochloride]	6.83 ± 1.46	-38±9%		-124±48%		inactive		inactive	IC50 (rat primary hepatocytes [3]; Rattus norvegicus, Hepatocyte): 27 ± 10.7 µM
O=[N+]([O-])c1cccc2ccccc12 [Compound 1-Nitronaphthalene]		-54±17%		-40±7%	59.7 ± 7.06	inactive		inactive	IC50 (rat primary hepatocytes [3]; Rattus norvegicus, Hepatocyte): 45.9 ± 14.7 µM
CSc1nc(NC2CC2)nc(NC(C)(C)C)n1 [Cybutryne]		-69±43%	14.3 ± 16	-81±18%	20.9 ± 13.9	inactive		inactive	
COc1cc([C@@H]2c3cc4c(cc3[C@H](O)[C@H]3COC(=O)[C@@H]23)OCO4)cc(OC)c1OC [Picropodophyllin;AXL-1717/NSC-36407]	0.14 ± 0.02	inactive		-56±10%		-58%	0.0548		MMP assays IC50 (µM) Rat Hepatocytes (rat primary hepatocytes [3]): inactive
O=C1OC(=O)C2C1C1(Cl)C(Cl)=C(Cl)C2(Cl)C1(Cl)Cl (centres unmarked) [Chlorendic anhydride]		inactive		inactive		inactive		inactive	MMP assays IC50 (µM) Rat Hepatocytes (rat primary hepatocytes [3]): inactive; MMP assays IC50 (µM) qHTS-HepG2 (HepG2 cells [4]): inactive
COc1ccc(N)cc1N.O=S(=O)(O)O [2,4-Diaminoanisole sulfate]		-58±24%	19.6 ± 19.3	-95±6%	2.51 ± 1.16	-125%	7.94		
CCCCCCCC/C=C\CCCCCCCC(=O)NCc1ccc(O)c(OC)c1 [Olvanil]	13.5 ± 1.9	inactive		-74±8%		inactive		inactive	MMP assays IC50 (µM) Rat Hepatocytes (rat primary hepatocytes [3]): inactive
CCCCCCCCCCCCCC[P+](CCCCCC)(CCCCCC)CCCCCC.[Br-] [Trihexyltetradecylphosphonium bromide]	0.84 ± 0.24	-89±37%	18.8 ± 4.25	-96±9%		-95%	0.45		
Cl.Nc1c2ccccc2nc2ccccc12.O		-56±22%	8.51 ± 5.35	-82±4%	13.8 ± 1.75	-115%	21.8		
O=C1CCCc2c1cc1ccc3cccc4ccc2c1c34 [9,10-Dihydrobenzo[a]pyren-7(8H)-one]		-79±35%	16.8 ± 7.33	-90±6%	9.81 ± 2.08	inactive		inactive	
CC1(C)C(/C=C(\Cl)C(F)(F)F)C1C(=O)OC(C#N)c1cccc(Oc2ccccc2)c1 (centres unmarked) [Cyhalothrin]		-55±25%		-73±14%	33.6 ± 5.79	inactive		inactive	IC50 (rat primary hepatocytes [3]; Rattus norvegicus, Hepatocyte): 33.8 ± 9.96 µM
Nc1ccc(-c2ccc(N)c(N)c2)cc1N [3,3'-Diaminobenzidine]		-62±22%	30.7 ± 28.3	-115±16%	13.7 ± 14.9	-55%	4.47		
O=C1C(I)=CC(=C(c2cc(I)c(O)c(I)c2)c2ccccc2C(=O)O)C=C1I [Iodophthalein sodium]	10.8 ± 3.91	-107±27%	8.73 ± 1	-82±5%		-97%	6.9		
